Assay results taken from patent US10793892B2, “Method for detecting the presence of expanded spectrum β-lactamase-producing bacteria in a sample” (INSERM (INSTITUT NATIONAL DE LA SANTE ET DE LA RECHERCHE …, priority 2011, dated 2020).

Columns and labels:
K. oxytoca = test: ESBL NDP test using cultured strains; format: biochemical, Klebsiella oxytoca; parameters: key: (+) and (−) referred to color change being, red to yellow or unchanged, respectively; (+) and (−) referred to color change being, red to yellow or unchanged, respectively; settings: K. oxytoca Wild-type penicillinase, n=1
Experimental: (§1) Strains were isolated on Mueller-Hinton agar (Biorad, Marnes-la-Coquette, France) and incubated at 37° C. for 16 h to 24 h before performing the NDP rapid ESBL test as follows. One calibrated inoculated loop (10 μl) of the tested strain was resuspended in 150 μl of 20 mM Tris-HCl lysis buffer previously distributed in Microbead tubes (Ultraclean Microbial DNA isolation kit Bead Tubes, MO BIO Laboratories, Carlsbad, USA). Mechanical lysis of bacteria was performed by strong agitation of Microbead tubes using a vortex adapter (MO BIO Laboratories) for 30 min at room temperature. This bacterial suspension was centrifuged at 10,000×g at room temperature for 5 min. Thirty μl of the supernatant was mixed in a well of a 96-well tray with 100 μl of a 1 ml solution made of 3 mg of purified cefotaxime sodium salt (Sigma-Aldrich, Saint-Quentin-Fallavier, France) in a pH 7.8 phenol red solution. […]. The phenol red solution was made by taking 2 ml of a concentrated pH 8 phenol solution (made from a mixture of phenol red 0.5% in distilled water) to which 16.6 ml of distilled water was added. The pH value was then adjusted to a 7.8 value by adding drops of a 1 N NaOH solution. Mixture of the phenol red solution and the enzymatic suspension being tested was incubated at 37° C. for 30 min. Similarly, culture extracts were analyzed in wells containing cefotaxime and tazobactam (4 mg/ml). […]

S. enterica [1] = test: ESBL NDP test using cultured strains; format: biochemical, Salmonella enterica; parameters: key: (+) and (−) referred to color change being, red to yellow or unchanged, respectively; (+) and (−) referred to color change being, red to yellow or unchanged, respectively
Experimental: as §1

E. cloacae = test: Susceptibility testing, MIC by Etest; format: cell-based, Enterobacter cloacae
Experimental: (§2) Susceptibility testing was performed by determining MIC values using the Etest® (AB bioMérieux; Solna, Sweden) on Mueller-Hinton agar plates at 37° C. and results were recorded according to US guidelines (CLSI), as updated in 2012 (2). The breakpoints for cefotaxime are susceptible (S)≤1 and resistant (R)≥4 μg/ml, and for ceftazidime S≤4 and R≥16 μg/ml.

P. stuartii = test: Susceptibility testing, MIC by Etest; format: cell-based, Providencia stuartii; settings: P. stuartii TEM-24, n=1
Experimental: as §2

S. marcescens = test: ESBL NDP test using cultured strains; format: biochemical, Serratia marcescens; parameters: key: (+) and (−) referred to color change being, red to yellow or unchanged, respectively; (+) and (−) referred to color change being, red to yellow or unchanged, respectively
Experimental: (§3) Strains were isolated on Mueller-Hinton agar (Biorad, Marnes-la-Coquette, France) and incubated at 37° C. for 16 h to 24 h before performing the NDP rapid ESBL test as follows. One calibrated inoculated loop (10 μl) of the tested strain was resuspended in 150 μl of 20 mM Tris-HCl lysis buffer previously distributed in Microbead tubes (Ultraclean Microbial DNA isolation kit Bead Tubes, MO BIO Laboratories, Carlsbad, USA). Mechanical lysis of bacteria was performed by strong agitation of Microbead tubes using a vortex adapter (MO BIO Laboratories) for 30 min at room temperature. This bacterial suspension was centrifuged at 10,000×g at room temperature for 5 min. Thirty μl of the supernatant was mixed in a well of a 96-well tray with 100 μl of a 1 ml solution made of 3 mg of purified cefotaxime sodium salt (Sigma-Aldrich, Saint-Quentin-Fallavier, France) in a pH 7.8 phenol red solution. […]. The phenol red solution was made by taking 2 ml of a concentrated pH 8 phenol solution (made from a mixture of phenol red 0.5% in distilled water) to which 16.6 ml of distilled water was added. The pH value was then adjusted to a 7.8 value by adding drops of a 1 N NaOH solution. Mixture of the phenol red solution and the enzymatic suspension being tested was incubated at 37° C. for 30 min. Similarly, culture extracts were analyzed in wells containing cefotaxime and tazobactam (4 mg/ml). Other concentrations of tazobactam and other ß-lactamase inhibitors were tested giving less clear results (data not shown). […] This definition of test positivity will be applied throughout the study.

S. ficaria = test: ESBL NDP test using cultured strains; format: biochemical; parameters: key: (+) and (−) referred to color change being, red to yellow or unchanged, respectively; (+) and (−) referred to color change being, red to yellow or unchanged, respectively
Experimental: as §3

S. thyphimurium = test: ESBL NDP test using cultured strains; format: biochemical; parameters: key: (+) and (−) referred to color change being, red to yellow or unchanged, respectively; (+) and (−) referred to color change being, red to yellow or unchanged, respectively; settings: S. thyphimurium 10.81, CTX-M-1
Experimental: as §3

C. brakii = test: ESBL NDP test using cultured strains; format: biochemical; parameters: key: (+) and (−) referred to color change being, red to yellow or unchanged, respectively; (+) and (−) referred to color change being, red to yellow or unchanged, respectively; settings: C. brakii Wild-type, chromosome-encoded cephalosporinase, n=1
Experimental: as §3

E. sakazakii = test: ESBL NDP test using cultured strains; format: biochemical; parameters: key: (+) and (−) referred to color change being, red to yellow or unchanged, respectively; (+) and (−) referred to color change being, red to yellow or unchanged, respectively; settings: overexpressed chromosome-encoded cephalosporinase, n=1
Experimental: as §3

M. morganii = test: Susceptibility testing, MIC by Etest; format: cell-based, Morganella morganii; settings: M. morganii Wild-type, chromosome-encoded cephalosporinase, n=2
Experimental: as §2

C. freundii = test: ESBL NDP test using cultured strains; format: biochemical, Citrobacter freundii; parameters: key: (+) and (−) referred to color change being, red to yellow or unchanged, respectively; (+) and (−) referred to color change being, red to yellow or unchanged, respectively
Experimental: as §3

S. enterica [2] = test: Susceptibility testing, MIC by Etest; format: cell-based, Salmonella enterica
Experimental: as §2

E. coli = test: Susceptibility testing, MIC by Etest; format: cell-based, Escherichia coli
Experimental: as §2

[3] = S. enterica Wild-type, no resistance, n=1

`CO/N=C(\C(=O)N[C@@H]1C(=O)N2C(C(=O)O)=C(COC(C)=O)CS[C@H]12)c1csc(N)n1` [CTX, cefotaxime] was tested, and the “Test (color change)” value (K. oxytoca) was “−”, the “Test (color change)” value (S. enterica [1]; S. enterica CTX-M-1, n=1) was “+” and the “Test (color change)” value (S. enterica [1]; [3]) was “−”. For the same compound, the MICs range (E. cloacae; E. cloacae CTX-M-14, n=1) was over 16 µg/mL, the MICs range (E. cloacae; E. cloacae CTX-M-15, n=17) was over 16 µg/mL and the MICs range (E. cloacae; E. cloacae GES-5, n=1) was over 16 µg/mL. It also gave an MICs range (E. cloacae; E. cloacae PER-1, n=1) of over 16 µg/mL, an MICs range (E. cloacae; E. cloacae SHV-5, n=1) of over 16 µg/mL and an MICs range (E. cloacae; E. cloacae TEM-3, n=2) of over 16 µg/mL. The MICs range (E. cloacae; E. cloacae VEB-1, n=1) was 16 µg/mL, the MICs range (E. cloacae; E. cloacae Wild-type, chromosome-encoded cephalosporinase, n=5) was 0.09 to 0.5 µg/mL and the MICs range (E. cloacae; E. cloacae, overexpressed chromosome-encoded cephalosporinase, n=2) was over 16 µg/mL. For the same compound, the MICs range (E. cloacae; E. cloacae, overexpressed chromosome-encoded cephalosporinase, n=3) was over 16 µg/mL, the MICs range (P. stuartii) was 0.5 µg/mL and the “ESBL NDP Test from: Colonies” value (S. marcescens; S. marcescens BG 1107 4243, Wild-type) was “−”. For the same compound, the “ESBL NDP Test from: Colonies” value (S. marcescens; S. marcescens BN 1201 0816, Wild-type) was “−”, the “Test (color change)” value (S. marcescens; S. marcescens Wild-type, chromosome-encoded cephalosporinase, n=2) was “−” and the “ESBL NDP Test from: Colonies” value (S. ficaria; S. ficaria CIP 104255, Wild-type) was “−”. For the same compound, the “Test (color change)” value (S. ficaria; S. ficaria Wild-type, chromosome-encoded cephalosporinase, n=1) was “−”, the “ESBL NDP Test from: Colonies” value (S. thyphimurium) was “+” and the “Test (color change)” value (C. brakii) was “−”. The “Test (color change)” value (E. sakazakii) was “−”, the MICs range (M. morganii) was 0.03 to 0.75 µg/mL and the “ESBL NDP Test from: Colonies” value (C. freundii; C. freundii BG 1106 7767, Wild-type) was “−”. The “Test (color change)” value (C. freundii; C. freundii CTX-M-15, n=3) was “+”, the “Test (color change)” value (C. freundii; C. freundii TEM-3, n=1) was “+” and the “Test (color change)” value (C. freundii; C. freundii Wild-type, chromosome-encoded cephalosporinase, n=1) was “−”. For the same compound, the MICs range (S. enterica [2]; S. enterica CTX-M-1, n=1) was over 16 µg/mL, the MICs range (S. enterica [2]; [3]) was 0.05 µg/mL and the MICs range (E. coli; E. coli ACC-1, n=1, first line) was over 16 µg/mL. For the same compound, the MICs range (E. coli; E. coli ACC-1, n=1, second line) was over 16 µg/mL, the MICs range (E. coli; E. coli CMY-2, n=1) was over 16 µg/mL and the MICs range (E. coli; E. coli CTX-M-1, n=16) was over 16 µg/mL. It also gave an MICs range (E. coli; E. coli CTX-M-2, n=3) of over 16 µg/mL, an MICs range (E. coli; E. coli CTX-M-3, n=1) of over 16 µg/mL and an MICs range (E. coli; E. coli CTX-M-9, n=1) of over 16 µg/mL. For the same compound, the MICs range (E. coli; E. coli CTX-M-14, n=15) was over 16 µg/mL, the MICs range (E. coli; E. coli CTX-M-27, n=6) was over 16 µg/mL and the MICs range (E. coli; E. coli CTX-M-28, n=1) was over 16 µg/mL. The MICs range (E. coli; E. coli CTX-M-32, n=1) was over 16 µg/mL, the MICs range (E. coli; E. coli CTX-M-97, n=1) was over 16 µg/mL and the MICs range (E. coli; E. coli DHA-1, n=1) was 0.25 µg/mL. For the same compound, the MICs range (E. coli; E. coli SHV-3, n=1) was 12 µg/mL, the MICs range (E. coli; E. coli SHV-12, n=1) was 0.75 µg/mL and the MICs range (E. coli; E. coli SHV-12, n=6) was over 16 µg/mL. It also gave an MICs range (E. coli; E. coli TEM-1 penicillinase, n=5) of 0.03 to 0.09 µg/mL, an MICs range (E. coli; E. coli TEM-12, n=1) of 0.5 µg/mL and an MICs range (E. coli; E. coli TEM-29, n=2) of 0.25 µg/mL. For the same compound, the MICs range (E. coli; E. coli TEM-133, n=1) was 0.19 µg/mL, the MICs range (E. coli; E. coli VEB-1, n=1) was 8 µg/mL and the MICs range (E. coli; E. coli Wild-type, no resistance, n=5) was 0.02 to 0.04 µg/mL.
